# Reference: patent publication US10865216B2, “Tricyclic Gyrase inhibitors” (MERCK SHARP & DOHME CORP., priority 2012, dated 2020)
# Tested on: S. aureus ATCC 13709
# Experiment: MIC, S. aureus ATCC 13709
# Assay type: cell-based
# Conditions: Staphylococcus aureus, ATCC13709, S. aureus; Alamar Blue read after overnight incubation at 35° C.; read-out: MIC Sa
row,SMILES,MIC
1,COc1cccc2c1[nH]c1nc(Sc3cnc4cccnc4c3)nc(N3CC4C(N)C4C3)c12 (centres unmarked) [Compound 1.75],≤ 0.5 µg/mL
2,CNc1cccc2c1[nH]c1nc(Oc3cncnc3)nc(Oc3cncnc3)c12 [Compound 8.1],2 µg/mL
3,CNc1cccc2c1[nH]c1nc(Sc3cnc4cccnc4c3)nc(N3CC4CNCC4C3)c12 (centres unmarked) [Compound 1.55],1 µg/mL
4,CNc1cccc2c1[nH]c1nc(Oc3ccc(C(=O)OC)nc3)cc(N3CC4C(N)C4C3)c12 (centres unmarked) [Compound 3.21],≤ 0.5 µg/mL
5,CNc1cc(F)cc2c1[nH]c1nc(Oc3cnc(C)nc3)nc(N3CC(N)C(C(F)(F)F)C3)c12 (centres unmarked) [Compound 4.436],≤ 0.5 µg/mL
6,CNc1cc(F)c(F)c2c1[nH]c1nc(Oc3cnc(CO)nc3)nc(N3C[C@H]4C[C@@H]3C[C@H]4N)c12 [Compound 5.14],≤ 0.5 µg/mL
7,CNc1cccc2c1[nH]c1nc(Oc3cncnc3)cc(N3CCN(CCN)CC3)c12 [Compound 3.56],> 64 µg/mL
8,CNc1cc(F)cc2c1[nH]c1nc(Oc3cnc(C)nc3)nc(-c3ccc(Cl)c(N)c3)c12 [Compound 4.432],≤ 0.5 µg/mL
9,CNc1cccc2c1[nH]c1nc(Sc3cnc4ccc[n+]([O-])c4c3)nc(N3CC4CNC4C3)c12 (centres unmarked) [Compound 1.32],≤ 0.5 µg/mL
10,CNc1cc(F)cc2c1[nH]c1nc(Oc3cnc(C)nc3)nc(-c3cncc(N)c3)c12 [Compound 4.450],≤ 0.5 µg/mL
11,CNc1cc(F)cc2c1[nH]c1nc(Oc3cnc(C(C)(C)O)nc3)nc(N3CC4(CC[C@H]4N)C3)c12 [Compound 4.431],≤ 0.5 µg/mL
12,CNc1cccc2c1[nH]c1nc(Oc3cncnc3)cc(N3CCC[C@@H](N)C3)c12 [Compound 3.16],4 µg/mL
13,CNc1cccc2c1[nH]c1nc(Sc3cnc4cccnc4c3)nc(N3CCN(C(C)=O)CC3)c12 [Compound 1.67],≤ 0.5 µg/mL

# Same assay, conditions: Staphylococcus aureus, ATCC13709, Table 16; new R4 substituents; read-out: SA MIC
row,SMILES,MIC
1,CNc1cc(F)cc2c1[nH]c1nc(Oc3cnc(C)nc3)nc(N3CC(N)C(C(=O)NCCN4CCOCC4)C3)c12 (centres unmarked) [drawing 1823],16 µg/mL
2,CNc1cc(F)cc2c1[nH]c1nc(Oc3cnc(C)nc3)nc(N3CCC(N)(C(F)(F)F)C3)c12 (centres unmarked),≤ 0.5 µg/mL

# Same assay, conditions: Table 13; L = NH
row,SMILES,SA MIC
1,CCOC(=O)c1csc(Nc2nc(N3C[C@H]4CC3C[C@H]4N)c3c(n2)[nH]c2c(NC)cc(F)cc23)n1,≤ 0.5 µg/mL

# Same assay, conditions: Table 18, Sa
row,SMILES,MIC Sa
1,CNc1cc(F)cc2c1[nH]c1nc(Oc3cnc(CN)nc3)nc(N3CCC4(CC[C@H]4N)C3)c12 (some centres unmarked) [Compound 10.105],≤ 0.5 µg/mL
2,CNc1cc(F)cc2c1[nH]c1nc(NCc3cccnc3)nc(N3C[C@H]4C[C@@H]3C[C@H]4N)c12 [Compound 10.48],8 µg/mL
3,CNc1cc(F)cc2c1[nH]c1nc(Sc3nc4cccnc4[nH]3)nc(N3C[C@H]4C[C@@H]3C[C@H]4N)c12 [Compound 10.38],≤ 0.5 µg/mL
4,CNc1cc(F)cc2c1[nH]c1nc(Oc3cnc4c(c3)C(=O)OC4(C)C)nc(N3C[C@H]4C[C@@H]3C[C@H]4N)c12 [Compound 10.72],≤ 0.5 µg/mL
5,CNc1cc(F)cc2c1[nH]c1nc(NCc3cnc(C)nc3)nc(N3C[C@H]4C[C@@H]3C[C@H]4N)c12 [Compound 10.60],8 µg/mL
6,CNc1cc(F)c(F)c2c1[nH]c1nc(Oc3cnc(C(C)O)nc3)nc(N3CCC4(CCCC4N)C3)c12 (centres unmarked) [Compound 10.112],≤ 0.5 µg/mL
7,CNc1cc(F)cc2c1[nH]c1nc(Oc3cnc(C)nc3)nc(N3CCOCC3)c12 [Compound 10.54],≤ 0.5 µg/mL
8,CNc1cc(F)c(Cl)c2c1[nH]c1nc(Oc3cnc(C)nc3)nc(N3C[C@H]4CCN[C@H]4C3)c12 [Compound 10.64],≤ 0.5 µg/mL
9,CNc1cc(F)c(F)c2c1[nH]c1nc(Oc3cnc([C@H](C)O)nc3)nc(N3CC[C@]4(CC[C@H]4N)C3)c12 [Compound 10.93],≤ 0.5 µg/mL
10,CNc1cc(F)c(F)c2c1[nH]c1nc(Oc3cnc([C@@H](C)O)nc3)nc(N3CC4NCC[C@@H]4C3)c12 (some centres unmarked) [Compound 10.31],≤ 0.5 µg/mL
11,CNc1cc(F)cc2c1[nH]c1nc(Oc3ccc4ccnn4c3)nc(N3C[C@H]4C[C@@H](N)[C@H]4C3)c12 [Compound 10.53],≤ 0.5 µg/mL
12,CNc1cc(F)cc2c1[nH]c1nc(Oc3cnc(C)nc3)nc(N3CC4CC(OS(N)(=O)=O)C4C3)c12 (centres unmarked) [Compound 10.99],≤ 0.5 µg/mL

# Tested on: E. coli ATCC 25922
# Experiment: MIC, E. coli ATCC 25922
# Assay type: cell-based
# Conditions: Escherichia coli, ATCC25922, E. coli; Alamar Blue read after overnight incubation at 35° C.; read-out: MIC Ec
row,SMILES,MIC
1,COc1cccc2c1[nH]c1nc(Sc3cnc4cccnc4c3)nc(N3CC4C(N)C4C3)c12 (centres unmarked) [Compound 1.75],> 64 µg/mL
2,CNc1cccc2c1[nH]c1nc(Oc3cncnc3)nc(Oc3cncnc3)c12 [Compound 8.1],> 64 µg/mL
3,CNc1cccc2c1[nH]c1nc(Sc3cnc4cccnc4c3)nc(N3CC4CNCC4C3)c12 (centres unmarked) [Compound 1.55],8 µg/mL
4,CNc1cccc2c1[nH]c1nc(Oc3ccc(C(=O)OC)nc3)cc(N3CC4C(N)C4C3)c12 (centres unmarked) [Compound 3.21],1 µg/mL
5,CNc1cc(F)cc2c1[nH]c1nc(Oc3cnc(C)nc3)nc(N3CC(N)C(C(F)(F)F)C3)c12 (centres unmarked) [Compound 4.436],> 16 µg/mL
6,CNc1cc(F)c(F)c2c1[nH]c1nc(Oc3cnc(CO)nc3)nc(N3C[C@H]4C[C@@H]3C[C@H]4N)c12 [Compound 5.14],≤ 0.5 µg/mL
7,CNc1cccc2c1[nH]c1nc(Oc3cncnc3)cc(N3CCN(CCN)CC3)c12 [Compound 3.56],> 64 µg/mL
8,CNc1cc(F)cc2c1[nH]c1nc(Oc3cnc(C)nc3)nc(-c3ccc(Cl)c(N)c3)c12 [Compound 4.432],> 16 µg/mL
9,CNc1cccc2c1[nH]c1nc(Sc3cnc4ccc[n+]([O-])c4c3)nc(N3CC4CNC4C3)c12 (centres unmarked) [Compound 1.32],4 µg/mL
10,CNc1cc(F)cc2c1[nH]c1nc(Oc3cnc(C)nc3)nc(-c3cncc(N)c3)c12 [Compound 4.450],2 µg/mL
11,CNc1cc(F)cc2c1[nH]c1nc(Oc3cnc(C(C)(C)O)nc3)nc(N3CC4(CC[C@H]4N)C3)c12 [Compound 4.431],≤ 0.5 µg/mL
12,CNc1cccc2c1[nH]c1nc(Oc3cncnc3)cc(N3CCC[C@@H](N)C3)c12 [Compound 3.16],4 µg/mL
13,CNc1cccc2c1[nH]c1nc(Sc3cnc4cccnc4c3)nc(N3CCN(C(C)=O)CC3)c12 [Compound 1.67],> 64 µg/mL

# Same assay, conditions: Escherichia coli, ATCC25922, Table 16; new R4 substituents; EC8 not defined; read-out: EC8 MIC
row,SMILES,MIC
1,CNc1cc(F)cc2c1[nH]c1nc(Oc3cnc(C)nc3)nc(N3CC(N)C(C(=O)NCCN4CCOCC4)C3)c12 (centres unmarked) [drawing 1823],> 16 µg/mL
2,CNc1cc(F)cc2c1[nH]c1nc(Oc3cnc(C)nc3)nc(N3CCC(N)(C(F)(F)F)C3)c12 (centres unmarked),1 µg/mL

# Same assay, conditions: Table 13; L = NH
row,SMILES,EC MIC
1,CCOC(=O)c1csc(Nc2nc(N3C[C@H]4CC3C[C@H]4N)c3c(n2)[nH]c2c(NC)cc(F)cc23)n1,1 µg/mL

# Same assay, conditions: Table 18, Ec
row,SMILES,MIC Ec
1,CNc1cc(F)cc2c1[nH]c1nc(Oc3cnc(CN)nc3)nc(N3CCC4(CC[C@H]4N)C3)c12 (some centres unmarked) [Compound 10.105],1 µg/mL
2,CNc1cc(F)cc2c1[nH]c1nc(NCc3cccnc3)nc(N3C[C@H]4C[C@@H]3C[C@H]4N)c12 [Compound 10.48],16 µg/mL
3,CNc1cc(F)cc2c1[nH]c1nc(Sc3nc4cccnc4[nH]3)nc(N3C[C@H]4C[C@@H]3C[C@H]4N)c12 [Compound 10.38],≤ 0.5 µg/mL
4,CNc1cc(F)cc2c1[nH]c1nc(Oc3cnc4c(c3)C(=O)OC4(C)C)nc(N3C[C@H]4C[C@@H]3C[C@H]4N)c12 [Compound 10.72],≤ 0.5 µg/mL
5,CNc1cc(F)cc2c1[nH]c1nc(NCc3cnc(C)nc3)nc(N3C[C@H]4C[C@@H]3C[C@H]4N)c12 [Compound 10.60],16 µg/mL
6,CNc1cc(F)c(F)c2c1[nH]c1nc(Oc3cnc(C(C)O)nc3)nc(N3CCC4(CCCC4N)C3)c12 (centres unmarked) [Compound 10.112],≤ 0.5 µg/mL
7,CNc1cc(F)cc2c1[nH]c1nc(Oc3cnc(C)nc3)nc(N3CCOCC3)c12 [Compound 10.54],≤ 0.5 µg/mL
8,CNc1cc(F)c(Cl)c2c1[nH]c1nc(Oc3cnc(C)nc3)nc(N3C[C@H]4CCN[C@H]4C3)c12 [Compound 10.64],≤ 0.5 µg/mL
9,CNc1cc(F)c(F)c2c1[nH]c1nc(Oc3cnc([C@H](C)O)nc3)nc(N3CC[C@]4(CC[C@H]4N)C3)c12 [Compound 10.93],≤ 0.5 µg/mL
10,CNc1cc(F)c(F)c2c1[nH]c1nc(Oc3cnc([C@@H](C)O)nc3)nc(N3CC4NCC[C@@H]4C3)c12 (some centres unmarked) [Compound 10.31],≤ 0.5 µg/mL
11,CNc1cc(F)cc2c1[nH]c1nc(Oc3ccc4ccnn4c3)nc(N3C[C@H]4C[C@@H](N)[C@H]4C3)c12 [Compound 10.53],≤ 0.5 µg/mL
12,CNc1cc(F)cc2c1[nH]c1nc(Oc3cnc(C)nc3)nc(N3CC4CC(OS(N)(=O)=O)C4C3)c12 (centres unmarked) [Compound 10.99],≤ 0.5 µg/mL
